Test results taken from US20100113466A1, “OXAZOLE-PYRIDAZINE-OXAZOLE ALPHA-HELIX MIMETIC” (The Scripps Research Institute, priority 2008, published 2010).

Target: Bcl-xL (Homo sapiens, UniProt Q07817)
Experiment: Bak/Bcl-XL competitive fluorescence polarization binding assay with fluorescein labeled Bid peptide
Conditions: displacement of fluorescein labeled Bid peptide from Bcl-xL; mP values only in drawings
Excerpt: The affinity of each molecule within the library of potential Bak mimetics can be assayed with respect to binding to Bcl-xL receptor. The binding affinity can be determined, for example, by a competitive binding assay based on fluorescence polarization. See Wang, et al., Proc. Natl. Acad. Sci., 2000, 97:7124-7129.
Competitive fluorescence polarization-based assays require a dye-labeled peptide to determine if the small molecule has affinity for the target protein. These assays can be carried out with a fluorescein labeled Bid peptide. […] When a solution of fluorescein labeled Bid peptide is irradiated with polarized light, the peptide rotates quickly and the emitted light is depolarized. Upon complexation with the target Bcl-xL protein, the larger complex rotates slowly and the emitted light remains polarized.
When the fluorescein-labeled Bid/Bcl-xL complex is exposed to small molecules with binding affinity for Bcl-xL, the Bid peptide is displaced and the amount of depolarized light emitted increases. This polarization amount (mP) provides an estimate of the affinity for the small molecules for Bcl-xL
See Kutzki, et al., J. Am. Chem. Soc., 2002, 124:11838-11839. This compound acts as a positive control.
These compounds represent the strongest binders for Bcl-xL of the Bak mimetic library, with structure and mP values shown below.

Sequence of Bcl-xL (Q07817 whole entry, species assumed): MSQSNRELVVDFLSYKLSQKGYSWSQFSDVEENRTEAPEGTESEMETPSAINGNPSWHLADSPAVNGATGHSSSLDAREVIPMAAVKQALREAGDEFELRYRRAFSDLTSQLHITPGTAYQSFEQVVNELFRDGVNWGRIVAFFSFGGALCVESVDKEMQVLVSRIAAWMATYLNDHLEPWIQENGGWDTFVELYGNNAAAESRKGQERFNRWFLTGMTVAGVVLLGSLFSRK

| activity (mP value) in binding to Bcl-xL | SMILES |
| --- | --- |
| particularly active | CC(C)Cc1cc(-c2nc(C(C)C)co2)nnc1-c1nc(C(C)C)co1 [Compound 4.53, 2,2′-(4-isobutylpyridazine-3,6-diyl)bis(4-isopropyloxazole)] |
| particularly active | CC(C)Cc1cc(C(=O)N2CCC[C@@H](OCc3ccccc3)C2)nnc1-c1nc(C(C)C)co1 [Compound 4.73, (R)-(3-(Benzyloxy)piperidin-1-yl)(5-isobutyl-6-(4-isopropyloxazol-2-yl)pyridazin-3-yl)methanone] |
